Experiments:
Experiment in all cases: WST-1 cell viability assay
Calu-3 = settings: Calu-3, NRP1-expressing; 0, 1, 2, and 4 μM, 48 hours
H1299 = settings: H1299, NRP1-expressing; 0, 1, 2, and 4 μM, 48 hours
A549 = settings: A549, NRP1-expressing; 0, 1, 2, and 4 μM, 48 hours
Calu-1 = settings: Calu-1, NRP1-expressing; 0, 1, 2, and 4 μM, 48 hours
H441 = settings: H441, NRP1-expressing; 0, 1, 2, and 4 μM, 48 hours
HCC44 = settings: HCC44, NRP1-expressing; 0, 1, 2, and 4 μM, 48 hours
SK-LU-1 = settings: SK-LU-1, NRP1-expressing; 0, 1, 2, and 4 μM, 48 hours
H460 = settings: H460, expressing no NRP1; 0, 1, 2, and 4 μM, 48 hours

Substance	cell growth inhibitory activity (WST-1) (Calu-3)	cell growth inhibitory activity (WST-1) (H1299)	cell growth inhibitory activity (WST-1) (A549)	cell growth inhibitory activity (WST-1) (Calu-1)	cell growth inhibitory activity (WST-1) (H441)	cell growth inhibitory activity (WST-1) (HCC44)	cell growth inhibitory activity (WST-1) (SK-LU-1)	cell growth inhibitory activity (WST-1) (H460)
Panitumumab [Pnm, reference compound]	showed the same inhibitory activity against cell growth	only Pnm-TPP11 showed cell growth inhibitory activity, unlike Pnm	showed the same inhibitory activity against cell growth	showed the same inhibitory activity against cell growth	only Pnm-TPP11 showed cell growth inhibitory activity, unlike Pnm	showed the same inhibitory activity against cell growth	only Pnm-TPP11 showed cell growth inhibitory activity, unlike Pnm	–
Pnm-TPP11: TPP11 peptide fused to C-terminus of Pnm heavy chain by (G4S)3 linker; heavy chain SEQ ID NO: 10, light chain SEQ ID NO: 14	showed the same inhibitory activity against cell growth	showed cell growth inhibitory activity	showed the same inhibitory activity against cell growth	showed the same inhibitory activity against cell growth	showed cell growth inhibitory activity	showed the same inhibitory activity against cell growth	showed cell growth inhibitory activity	showed no effect

Reference: patent publication US11548915B2, “Composition for overcoming resistance to EGFR-targeting agent” (Pinetree Therapeutics, Inc., priority 2016, dated 2023)
